Laboratory results reported in BindingDB's records for doi:10.1021/acs.jmedchem.6b00108 (University of Montreal, 2016).
Where a SMILES comes first, the peptide text is derived from it.

Assays:
[1] = Antagonist activity at UT2 receptor in Sprague-Dawley rat thoracic aorta ring assessed as pEC50 for hU2-induced aortic contractions at 10^-5M relative to KCl
[2] = Antagonist activity at UT2 receptor in Sprague-Dawley rat thoracic aorta ring assessed as pEC50 for URP -induced aortic contractions at 10^-5M relative to KCl

SMILES	EC50 [1]	EC50 [2]
CC(C)[C@H](NC(=O)[C@@H]1CSSC[C@H](NC(=O)[C@@H](N)CC(=O)O)C(=O)N[C@@H](Cc2ccccc2)C(=O)NN(Cc2cccc3ccccc23)S(=O)(=O)N[C@@H](CCCCN)C(=O)N[C@@H](Cc2ccc(O)cc2)C(=O)N1)C(=O)O	5 nM	7.9 nM
CC(C)[C@H](NC(=O)[C@@H]1CSSC[C@H](NC(=O)[C@@H](N)CC(=O)O)C(=O)N[C@@H](Cc2ccccc2)C(=O)NN(Cc2ccc3ccccc3c2)S(=O)(=O)N[C@@H](CCCCN)C(=O)N[C@@H](Cc2ccc(O)cc2)C(=O)N1)C(=O)O	15 nM	9.5 nM
CC(C)[C@H](NC(=O)[C@@H]1CSSC[C@H](NC(=O)[C@@H](N)CC(=O)O)C(=O)N[C@@H](Cc2ccccc2)C(=O)N[C@@H](Cc2c[nH]c3ccccc23)C(=O)NN(CCCCN(C)C)S(=O)(=O)N[C@@H](Cc2ccc(O)cc2)C(=O)N1)C(=O)O (HELM PEPTIDE1{D.C.F.W.[CN(C)CCCCN(N[*:1])S(=O)(=O)N[C@@H](Cc1ccc(O)cc1)C(=O)[*:2]].C.V}$PEPTIDE1,PEPTIDE1,2:R3-6:R3$$$V2.0)	1.6 nM	3.7 nM
CC(C)[C@H](NC(=O)[C@@H]1CSSC[C@H](NC(=O)[C@@H](N)CC(=O)O)C(=O)N[C@@H](Cc2ccccc2)C(=O)NN(Cc2ccccc2)S(=O)(=O)N[C@@H](CCCCN)C(=O)N[C@@H](Cc2ccc(O)cc2)C(=O)N1)C(=O)O (HELM PEPTIDE1{D.C.F.[NCCCC[C@H](NS(=O)(=O)N(Cc1ccccc1)N[*:1])C(=O)[*:2]].Y.C.V}$PEPTIDE1,PEPTIDE1,2:R3-6:R3$$$V2.0)	4.8 nM	3.5 nM
